Reference: patent US8158630B2, “Application of 2,5 -dihydroxymethyl-3,6-dimethyl pyrazine and its derivates in pharmacy” (Nanjing University of Chinese Medicine, priority 2010, dated 2012)

Tests used:
[1] = test system: isolated hearts of rats; test: Effects on the cardiac contractility of isolated hearts of rats (Langendorff perfusion); design: species or system rat; settings: 0.1 mmol/L; for heart dysrhythmia / +dp/dtmax (maximum value of left ventricular pressure increase) / Heart rate / LVEDP (left ventricular diastolic pressure) / LVSP (left ventricular systolic pressure) / −dp/dtmax (maximum value of left ventricular pressure decrease): isolated rat heart; for +dp/dtmax (maximum value of left ventricular pressure increase) / Heart rate / LVEDP (left ventricular diastolic pressure) / LVSP (left ventricular systolic pressure) / −dp/dtmax (maximum value of left ventricular pressure decrease): after administration
Procedure: Intraperitoneal injection of 1.2 g/kg urethane is carried out on rats and the hearts are collected. After the hearts are rinsed and cut in 100% oxygen saturated physiological saline at 0° C., they are connected to modified Langendorff heart perfusion equipments to couduct retrogressive perfusion via the aorta. The perfusate (in mmol/L) is NaCl 117, KCl 5.7, CaCl2 1.8, NaHCO3 4.4, NaH2PO4 1.5, MgCl2 1.7, HEPES 20, Glucose 11, Creatine 10, Taurine 20, and NaOH is used to adjust the pH value to 7.3. The probe of the pressure receptor is inserted into the left ventricle via the left auricle, and BioAmp amplifier is used to record the left ventricular pressure, and the electrocardiogram is measured at the same time.

[2] = test system: normal rats; test: Effects on heart functions and hemodynamics of normal rats, intravenous administration; type: in vivo, rat; settings: for LVEDP / LVSP / +dp/dtmax / −dp/dtmax: normal rats, within one minute after administration, n = 10; for +dp/dtmax / −dp/dtmax: in mmHg/s (unit assumed)
Procedure: After the rats are paralysed with 20% ethyl urethane (urethane) (1 g/kg) and fixed on a thermostatical operation table on their backs, needle-electrodes for electrocardiogram are subcutaneously inserted from their extremities and the lead II […] (ECG) and the heart rate (HR) are measured by inputting into the multiplying channel device. The right common carotid artery is isolated from the inner side of sternocleidomastoid muscle after the […] and temperature (37° C.) become stable, and the right common carotid artery is ligated at its head end and left ventricular cannulation is carried out. It is connected with the polygraph via a pressure transducer to measure the heart function indexes of left ventricle, in the meantime, the right femoral vein is isolated and venous cannulation is carried out for the intravenous administration, and the non-inserted end is connected to a syringe that is filled with 40 IU/mL heparin physiological saline, the multi-channel physiological signal acquisition and processing system is used to record the data. After the measured indexes become stable, the data at one minute before the drug administration are recorded as the blank control, and Liguzinediol is dissolved in physiological saline and then use 5, 10 and 20 mg/kg respectively as the low, mediate and high dosage groups, and the results within one minute after the intravenous administration are shown in Table 2. The heart rate aberration that is induced by Liguzinediol is not found in the three dosage groups after administration.

SMILES	cardiac contractility of isolated hearts of rats [1]	heart dysrhythmia [1]	+dp/dtmax (maximum value of left ventricular pressure increase) [1]	Heart rate [1]	LVEDP (left ventricular diastolic pressure) [1]	LVSP (left ventricular systolic pressure) [1]	−dp/dtmax (maximum value of left ventricular pressure decrease) [1]	further results
CC(=O)OCc1nc(C)c(COC(C)=O)nc1C [Compound 1, 2,5-diacetoxymethyl-3,6-dimethyl pyrazine]	significantly increase	no heart dysrhythmia is found	831.9 ± 268.2	191.6 ± 58.0^Δ	−14.4 ± 7.2	26.1 ± 12.5	−884.9 ± 347.0	–
Cc1nc(CO)c(C)nc1CO [Compound 2, 2,5-dihydroxymethyl-3,6-dimethyl pyrazine]	significantly increase	no heart dysrhythmia is found	790.3 ± 251.6	154.4 ± 28.8^Δ	−13.0 ± 2.3	26.9 ± 5.9	−763.5 ± 188.0	LVEDP ([2]; 5 mg/kg i.v.): 7.9 ± 6.3; LVSP ([2]; 5 mg/kg i.v.): 132.7 ± 9.1; +dp/dtmax ([2]; 5 mg/kg i.v.): 12027 ± 1388; −dp/dtmax ([2]; 5 mg/kg i.v.): −10238 ± 1247; LVEDP ([2]; 10 mg/kg i.v.): 6.9 ± 6.1; LVSP ([2]; 10 mg/kg i.v.): 135.7 ± 10.9; +dp/dtmax ([2]; 10 mg/kg i.v.): 11484 ± 1410; −dp/dtmax ([2]; 10 mg/kg i.v.): −9667 ± 670; LVEDP ([2]; 20 mg/kg i.v.): 6.3 ± 4.8; LVSP ([2]; 20 mg/kg i.v.): 139.7 ± 4.6; +dp/dtmax ([2]; 20 mg/kg i.v.): 12347 ± 1030; −dp/dtmax ([2]; 20 mg/kg i.v.): −9964 ± 1045; left ventricular contraction and diastolic function of rat heart ([2]; rats, 5, 10 and 20 mg/kg i.v.): significantly increase the left ventricular contraction and improve the diastolic function; heart rate aberration ([2]; rats, 5, 10 and 20 mg/kg i.v., after administration): not found
